Source: paper PMC8196580, “Identification of Kaurane-Type Diterpenes as Inhibitors of Leishmania Pteridine Reductase I” (Molecules, 2021)
Read-outs that look alike come from different tables or passages of the source.

Experiments:
L. major [1] = assay: ChEMBL dataset of pIC50 values against L. major used for the RF model (Table S1); type: cell-based, Leishmania major; note: call rule not given here
Excerpt: From the ChEMBL database (https://www.ebi.ac.uk/chembl/, accessed on 10 January 2021), we selected a diverse set of 1085 structures that were initially classified according to their predicted activity against L. major.
Excluding these structures minimized the differences in activity values resulting from errors and differences in experimental protocols. […] Standardizer software [JChem, version 16.11.28 (2016), calculation module developed by ChemAxon, https://www.chemaxon.com/, accessed on 20 January 2021] was used to canonize all simplified molecular-input line-entry system (SMILES) codes. After duplicate structures were removed, those with higher pIC50 values were eliminated, facilitating the generation of more restrictive models.

L. major [2] = test system: L. major; design: method as in ChEMBL; details: ref ChEMBL, cited from earlier work
[3] = Active/Inactive class assigned to the ChEMBL pIC50 value for Random forest model construction, ref ChEMBL
[4] = ChemBL structures with pIC50 values used for Random forest model construction, L. major
[5] = Active/Inactive class assigned to ChemBL structures for Random forest model construction (Table S1)
[6] = ChemBL structures with pIC50 values used for Random forest model construction (Table S1)

Structure (SMILES) | Outcome (L. major [1]; [3]) | pIC50 Value (L. major [2]; [4]) | Outcome (L. major [1]; [5]) | pIC50 Value (L. major [2]; [6])
CC(=O)N1CCN(c2ccc(OC[C@H]3CO[C@](Cn4ccnc4)(c4ccc(Cl)cc4Cl)O3)cc2)CC1 (racemic) [CHEMBL75] | Inactive | 4.62 | – | –
COc1cc(NS(C)(=O)=O)ccc1Nc1c2ccccc2nc2ccccc12 [CHEMBL43] | – | – | Active | 5.82
N=C(N)c1ccc(OCCCCCOc2ccc(C(=N)N)cc2)cc1 [CHEMBL55] | Inactive | 4.82 | – | –
OC(Cn1cncn1)(Cn1cncn1)c1ccc(F)cc1F [CHEMBL106] | Inactive | 3.79 | – | –
CCCCCCCCCCCCCCCCOP(=O)([O-])OCC[N+](C)(C)C [CHEMBL125] | Inactive | 4.44 | – | –
COC(=O)C1=C(C)NC(C)=C(C(=O)OC)C1c1ccccc1[N+](=O)[O-] [CHEMBL193] | Inactive | 3.74 | – | –
C[C@@H](c1ncncc1F)[C@](O)(Cn1cncn1)c1ccc(F)cc1F [CHEMBL638] | Active | 5.21 | – | –
N=C(N)c1ccc(OCCCCCOc2ccc(C(=N)N)cc2)cc1.O=S(=O)(O)CCO [CHEMBL935] | Inactive | 4.08 | – | –
COCCOC(=O)C1=C(C)NC(C)=C(C(=O)OC(C)C)C1c1cccc([N+](=O)[O-])c1 (stereo not shown) [CHEMBL1428] | Inactive | 4.51 | – | –
COC(=O)C1=C(C)NC(C)=C(C(=O)OCCN(C)Cc2ccccc2)C1c1cccc([N+](=O)[O-])c1 (stereo not shown) [CHEMBL1484] | Inactive | 4.66 | – | –
CCOC(=O)C1=C(COCCN)NC(C)=C(C(=O)OC)C1c1ccccc1Cl (stereo not shown) [CHEMBL1491] | – | – | – | 5.47
COc1ccc(CCN(C)CCCC(C#N)(c2ccc(OC)c(OC)c2)C(C)C)cc1OC (stereo not shown) [CHEMBL6966] | – | 4.39 | – | –
O=C(/C=C/c1ccc(O)cc1)c1ccccc1 [CHEMBL7747] | – | – | Active | 5.40
CN(C)Cc1ccc(Nc2c3ccc(N)cc3nc3cc(N)ccc23)cc1 [CHEMBL34804] | – | – | Active | 5.30
CN(C)c1ccc(Nc2c3ccccc3nc3ccccc23)cc1 [CHEMBL34941] | – | – | Active | 6.05
CN(C)Cc1ccc(Nc2c3ccc(Cl)cc3nc3cc(Cl)ccc23)cc1 [CHEMBL36404] | – | – | Active | 5.70
CN(C)c1ccc2c(Nc3ccccc3)c3ccc(N(C)C)cc3nc2c1 [CHEMBL37644] | – | – | Active | 7.52
c1ccc(Nc2c3ccccc3nc3ccccc23)cc1 [CHEMBL49436] | – | – | Active | 5.57
CCC(C)n1ncn(-c2ccc(N3CCN(c4ccc(OCC5COC(Cn6cncn6)(c6ccc(Cl)cc6Cl)O5)cc4)CC3)cc2)c1=O (stereo not shown) [CHEMBL64391] | – | – | Active | 5.70
c1cncc(-c2nc3ccccc3[nH]2)c1 [CHEMBL83103] | – | – | Active | 5.48
Nc1ccc(Nc2c3ccccc3nc3ccccc23)cn1 [CHEMBL84678] | – | – | Active | 5.41
CCN(C)c1ccc(Nc2c3ccccc3nc3ccccc23)cc1 [CHEMBL86724] | – | – | Active | 6.00
CCCCCCNc1ccc(Nc2c3ccc(N(C)C)cc3nc3cc(N(C)C)ccc23)cc1 [CHEMBL86823] | – | – | Active | 6.80
CCCCCCN(CCCCCC)c1ccc(Nc2c3ccccc3nc3ccccc23)cc1 [CHEMBL88123] | – | – | Active | 6.62
CCCCCCN(C)c1ccc(Nc2c3ccc(N(C)C)cc3nc3cc(N(C)C)ccc23)cc1 [CHEMBL88461] | – | – | Active | 7.15
CCCCCCNc1ccc(Nc2c3ccccc3nc3ccccc23)cc1OC [CHEMBL88507] | – | – | Active | 6.40
CCCCCCN(C)c1ccc(Nc2c3ccccc3nc3ccccc23)cc1OC [CHEMBL88682] | – | – | Active | 6.22

Structure (SMILES) | Outcome (L. major [1]; [3]) | pIC50 Value (L. major [2]; [4]) | Outcome (L. major [1]; [5]) | pIC50 Value (L. major [2]; [6])
CCCN(CCC)c1ccc(Nc2c3ccccc3nc3ccccc23)cc1 [CHEMBL88980] | – | – | Active | 6.70
CCCCCN(CCCCC)c1ccc(Nc2c3ccccc3nc3ccccc23)cc1 [CHEMBL89031] | – | – | Active | 6.80
NCCNCCc1ccc(Nc2c3ccccc3nc3ccccc23)cc1 [CHEMBL89150] | – | – | Active | 6.15
c1ccc2c(Nc3ccc(NC4CCCCC4)cc3)c3ccccc3nc2c1 [CHEMBL89171] | – | – | Active | 6.26
CCCCCCNc1ccc(Nc2c3ccc(Cl)cc3nc3ccc(OC)cc23)cc1OC [CHEMBL89400] | – | – | Active | 6.30
CCN(CC)CCCNc1ccc(Nc2c3ccccc3nc3ccccc23)cc1 [CHEMBL89458] | – | – | Active | 6.70
CCN(CC)CCCc1ccc(Nc2c3ccccc3nc3ccccc23)cc1 [CHEMBL89519] | – | – | Active | 6.52
CCCCCNCc1ccc(Nc2c3ccccc3nc3ccccc23)cc1 [CHEMBL89683] | – | – | Active | 5.70
CCCCCCOc1ccc(Nc2c3ccccc3nc3ccccc23)cc1 [CHEMBL89758] | – | – | Active | 6.00
c1ccc2c(Nc3ccc(NC4CCCC4)cc3)c3ccccc3nc2c1 [CHEMBL90679] | – | – | Active | 6.35
c1ccc2c(Nc3ccc(CN4CCCC4)cc3)c3ccccc3nc2c1 [CHEMBL91079] | – | – | Active | 6.70
CCN(CC)CCNc1ccc(Nc2c3ccccc3nc3ccccc23)cc1OC [CHEMBL92012] | – | – | Active | 5.80
CNc1ccc(Nc2c3ccccc3nc3ccccc23)cc1OC [CHEMBL92157] | – | – | Active | 5.44
C=CC(C)(C)c1cc(/C=C/C(=O)c2ccc(O)cc2)c(OC)cc1O [CHEMBL139702] | Inactive | 4.85 | – | –
COc1ccc(/C=C/C(=O)c2ccccc2O)c(OC)c1 [CHEMBL143265] | – | – | Active | 5.34
COc1ccc(/C=C/C(=O)c2ccccc2)c(OC)c1 [CHEMBL144626] | – | – | Active | 5.40
NP(=O)(OCc1ccc([N+](=O)[O-])cc1)N(CCCl)CCCl (stereo not shown) [CHEMBL144896] | Inactive | 4.52 | – | –
c1ccc(-c2nc3ccccc3[nH]2)cc1 [CHEMBL153535] | – | – | Active | 5.46
CC(C)=CCC/C(C)=C/CC/C(C)=C/COc1ccc2ccc(=O)oc2c1 [CHEMBL156127] | Inactive | 4.88 | – | –
O=[N+]([O-])c1ccc2nc(-c3cccnc3)[nH]c2c1 [CHEMBL159327] | – | – | Active | 5.48
C[C@H]1COC2=C1C(=O)C(=O)c1c2ccc2c1CCCC2(C)C [CHEMBL187460] | Inactive | 4.74 | – | –
O=[N+]([O-])c1ccc(-c2nnc(N3CCCCC3)s2)s1 [CHEMBL191691] | Inactive | 3.82 | – | –
CC(=O)N1CCN(c2nnc(-c3ccc([N+](=O)[O-])o3)s2)CC1 [CHEMBL192375] | – | – | Active | 5.96
CC(=O)N1CCN(c2nnc(-c3ccc([N+](=O)[O-])s3)s2)CC1 [CHEMBL193546] | Inactive | 4.31 | – | –
O=[N+]([O-])c1ccc(-c2nnc(N3CCNCC3)s2)s1 [CHEMBL193685] | Inactive | 3.82 | – | –
O=C(c1ccccc1)N1CCN(c2nnc(-c3ccc([N+](=O)[O-])o3)s2)CC1 [CHEMBL195349] | Inactive | 4.93 | – | –
O=C(c1ccccc1)N1CCN(c2nnc(-c3ccc([N+](=O)[O-])s3)s2)CC1 [CHEMBL195362] | Inactive | 4.60 | – | –
